Test: excess molar enthalpy (molar enthalpy of mixing); xn = mol fraction of the nth substance listed
Settings: 101 kPa, Crystal, Calvet calorimetry

O=[N+]([O-])[O-].[Rb+] [rubidium nitrate] + O=[N+]([O-])[O-].[Cs+]
excess molar enthalpy [kcal/mol]
Settings | 298.15 K | 473.15 K
x1 = 0.1 | 0.12 | –
x1 = 0.16 | – | 0.0619
x1 = 0.23 | 0.263 | –
x1 = 0.32 | 0.287 | –
x1 = 0.36 | – | 0.132
x1 = 0.5 | 0.335 | 0.139
x1 = 0.57 | 0.335 | –
x1 = 0.65 | 0.311 | –
x1 = 0.68 | 0.287 | –
x1 = 0.73 | – | 0.103
x1 = 0.8 | 0.215 | –
